# Experimental data as given in patent US20250312355A1, “DHCR24 INHIBITORY COMPOUNDS” (ACADEMISCH ZIEKENHUIS LEIDEN (H.O.D.N. LUMC), priority 2022, published 2025).
# Like-named read-outs stand apart in the source and are kept apart here.
# What was measured:
# HL-60 cells = assay: IC50 determination: incorporation of 13C-acetate into cholesterol in HL-60 cells (GC-MS); type: cell-based; details: Homo sapiens, read-out: HL60 assay activity
# Protocol: Two test concentrations (1 μM and 50 μM) were used. The compounds were dissolved in ethanol or DMSO and the testing-stock solutions are prepared taking a final dilution of 1:100 into account. Ultimately 10 μL of testing stock solution were added to 990 μL of lipid-free medium containing 1% lipoprotein deficient serum (LPDS) without antibiotics. HL-60 cells (1×10^6 cells) were incubated in 24-well plates in 1.0 mL of medium consisting of 990 μL of lipid free medium with 1% LPDS and 10 μL of respective inhibitor solution.
# For IC50 determination, the incorporation of labelled acetate in the target molecule cholesterol is being assessed and the protocol is altered in the following manner: to each well 10 μL of a sterile sodium 2-^13C-acetate solution (6.25 mg/mL) were added before the addition of the inhibitor solution, leading to a final ^13C-acetate concentration of 62.5 μg/mL. After saponification 3×25 μL aliquots are taken for protein determination applying the Bradford reagent. After work-up and silylation, GC-MS analysis allows the quantification ^13C incorporation into cholesterol according to the below given formula. The percentage inhibition (see formula) relative to untreated control samples (0% inhibition) was plotted against the logarithmic inhibitor concentration using Graph Pad Prism 4 (or higher). A bottom level constant equal to 0 is set as constraint using a sigmoidal dose-response model with a various slope. All samples are normalised to their protein. For each concentration the inhibitory percentage is determined in triplicate.
# The above formula is the calculation formula for the percentage inhibition, where AS represents the area sample; AI.S.C. represents the area internal standard control; PCC represents the protein content control; AC represents the area control; AI.S.S. represents the area internal standard sample; and PCs represents the protein content sample.
# male E3L.CETP mice [1] = assay: Rescue experiment: E3L.CETP mice on HFCD for 10 weeks, then SH42 for additional 8 weeks; type: in vivo
# Excerpt: Hemizygous APOE*3-Leiden (E3L) mice were crossbred with homozygous human cholesteryl ester transfer protein (CETP) transgenic mice to generate heterozygous E3L.CETP mice on a C57BL/6J background [M. Westerterp et al., “Cholesteryl ester transfer protein decreases high-density lipoprotein and severely aggravates atherosclerosis in APOE*3-Leiden mice”; Arterioscler Thromb Vasc Biol 26, 2552-2559 (2006)]. Because of phenotypical heterogeneity of E3L. CETP mice, non-responder mice were identified by 4-hour fasting plasma lipid levels, i.e., total cholesterol levels <2 mM and triglyceride levels <2 mM, and excluded before special diet treatment. LXRα-deficient mice (also on C57BL/6J background), generated by Deltagen using gene-targeting methods as described [T. Plosch et al., “Abcg5/Abcg8-independent pathways contribute to hepatobiliary cholesterol secretion in mice”; Am J Physiol Gastrointest Liver Physiol, 291, G414-423 (2006)(33)] were provided by Tularik (San Francisco, CA, US). Mice were group-housed in individually ventilated cages in standard conditions at room temperature (22° C.) with 40±5% relative humidity and a 12-h light/dark (7 am lights on; 7 pm lights off) cycle. All animals received humane care according to the criteria outlined in the NIH “Guide for the Care and Use of Laboratory Animals”. All animal procedures were performed in conformance with the guidelines from Directive 2010/63/EU of the European Parliament on the protection of animals used for scientific purposes.
# At the age of 10-12 weeks, male E3L.CETP mice and LXRα-deficient mice were fed a high fat high cholesterol diet (HFCD; Altromin, Germany) containing 60% (energy) fat and 1% (wt/wt) cholesterol, and were randomized into two groups treated with either the DHCR24 inhibitor compound of Example 11 [also referred to herein as SH42] (0.5 mg·mouse^−1) or vehicle (saline containing 3.3% ethanol and 3.3% Cremophor EL) 3 times per week by intraperitoneal injection. E3L.CETP mice were treated for 4 weeks (n=6 mice per group) and 8 weeks (n=8 mice per group) to evaluate effects on hepatic immune cells via flow cytometry analysis and hepatic steatosis via quantitative lipidomic analysis, respectively. LXRα-deficient mice were treated with either SH42 (n=11 mice) or vehicle (n=10 mice) for 4 weeks to evaluate effects on hepatic steatosis and immune cells. In a rescue experiment, male E3L.CETP mice were fed with HFCD for 10 weeks first and cotreated with SH42 (0.5 mg mouse^−1) or vehicle (saline containing 3.3% ethanol and 3.3% Cremophor EL) 3 times per week by intraperitoneal injection for additional 8 weeks.
# Body weight was measured weekly. Body composition (i.e. fat body and lean body mass; EchoMRI-100; EchoMRI, Houston, TX, USA) was evaluated before and after intervention. Food intake was determined during the treatment period.
# male E3L.CETP mice [2] = assay: E3L.CETP mice on high fat high cholesterol diet, SH42 for 8 weeks (hepatic steatosis, lipidomics, immunohistochemistry, plasma lipids); type: in vivo
# male E3L.CETP mice [3] = assay: E3L.CETP mice on HFCD, SH42 for 4 weeks, flow cytometry of hepatic immune cells; type: in vivo
# Excerpt: Hemizygous APOE*3-Leiden […]) mice were crossbred with homozygous human cholesteryl ester transfer protein (CETP) transgenic mice to generate heterozygous E3L.CETP mice on a C57BL/6J background [[…] al., “Cholesteryl ester transfer protein decreases high-density lipoprotein and severely aggravates atherosclerosis in APOE*3-Leiden mice”; Arterioscler Thromb Vasc Biol 26, 2552-2559 (2006)]. Because of phenotypical heterogeneity of E3L. CETP mice, non-responder mice were identified by 4-hour fasting plasma lipid levels, i.e., total cholesterol levels <2 mM and triglyceride levels <2 mM, and excluded before special diet treatment. LXRα-deficient mice (also on C57BL/6J background), generated by Deltagen using gene-targeting methods as described [T. Plosch et al., “Abcg5/Abcg8-independent pathways contribute to hepatobiliary cholesterol secretion in mice”; Am J Physiol Gastrointest Liver Physiol, 291, […]-423 (2006)(33)] were provided by Tularik (San Francisco, CA, US). […] All animals received humane care according to the criteria outlined in the NIH “Guide for the Care and Use of Laboratory Animals”. All animal procedures were performed in conformance with the guidelines from Directive 2010/63/EU of the European Parliament on the protection of animals used for scientific purposes. At the age of 10-12 weeks, male E3L.CETP mice and LXRα-deficient mice were fed a high fat high cholesterol diet (HFCD; […] LXRα-deficient mice were treated with either SH42 (n=11 mice) or vehicle (n=10 mice) for 4 weeks to evaluate effects on hepatic steatosis and immune cells. In a rescue experiment, male E3L.CETP mice were fed with HFCD for 10 weeks first and cotreated with SH42 (0.5 mg mouse^-1) or vehicle (saline containing 3.3% ethanol and 3.3% Cremophor EL) 3 times per week by intraperitoneal injection for additional 8 weeks.
# [4] = HL-60 cells, 24 h, 13C-acetate incorporation into cholesterol
# [5] = 10 weeks HFCD, then 8 weeks treatment
# [6] = 8 weeks, absolute concentration
# [7] = after 8 weeks of treatment, vs control group
compound,measurement,setting,value
C[C@H](CSSc1ccccn1)C1CCC2C3=CCC4C[C@@H](O)CC[C@]4(C)C3CC[C@@]21C (some centres unmarked) [Example 5],IC50,HL-60 cells; [4],417 nM
CC(=O)O[C@H]1CC[C@@]2(C)C(CC=C3C2CC[C@@]2(C)C3CCC2[C@H](C)COC=O)C1 (some centres unmarked) [Example 11],body composition,male E3L.CETP mice [1]; [5],did not significantly influence
same,"collagen content (liver fibrosis), change",male E3L.CETP mice [1]; [5],−50%
same,"hepatic crown-like structures, change",male E3L.CETP mice [1]; [5],−89%
same,hepatic steatosis,male E3L.CETP mice [1]; [5],No difference
same,increase in plasma desmosterol levels,male E3L.CETP mice [1]; [5],> 400 fold
same,liver weight,male E3L.CETP mice [1]; [5],No difference
same,"plasma alanine transaminase (ALT), change",male E3L.CETP mice [1]; [5],−42%
same,total body weight,male E3L.CETP mice [1]; [5],did not significantly influence
same,F4/80 positive area,"male E3L.CETP mice [1]; mouse, in vivo",without significant influence
same,food intake,"male E3L.CETP mice [2]; 0.5 mg/mouse i.p. 3 times per week, 8 weeks, vs vehicle",did not affect
same,HFCD-induced body weight gain,"male E3L.CETP mice [2]; 0.5 mg/mouse i.p. 3 times per week, vs control group",temporarily preventing
same,fasting plasma glucose,male E3L.CETP mice [2]; 8 weeks,did not affect
same,fasting plasma insulin,male E3L.CETP mice [2]; 8 weeks,did not affect
same,homeostatic Model Assessment for Insulin Resistance (HOMA-IR) scores,male E3L.CETP mice [2]; 8 weeks,did not affect
same,"weight of various tissues (liver, white adipose tissue, kidney, heart, lung, spleen, brown adipose tissue)",male E3L.CETP mice [2]; 8 weeks,unchanged
same,"plasma levels of FFA, change",male E3L.CETP mice [2]; [6],−16%
same,plasma levels of total DAG,male E3L.CETP mice [2]; [6],did not affect
same,plasma levels of total TAG,male E3L.CETP mice [2]; [6],did not affect
same,"plasma levels of CE, change","male E3L.CETP mice [2]; 8 weeks, absolute concentration, p=0.08",−24%
same,"hepatic F4/80 content, change","male E3L.CETP mice [2]; 8 weeks, immunohistochemistry",−29%
same,"number of hepatic crown-like structures, change","male E3L.CETP mice [2]; 8 weeks, immunohistochemistry",−79%
same,"hepatic free fatty acids (FFA), change","male E3L.CETP mice [2]; 8 weeks, liver",−16%
same,"other liver lipid classes, including CER, PC, PE and SM (relative)","male E3L.CETP mice [2]; 8 weeks, liver lipidomics",relative increase
same,relative reduction of DAG in liver lipid class composition,"male E3L.CETP mice [2]; 8 weeks, liver lipidomics",−22%
same,relative reduction of TAG in liver lipid class composition,"male E3L.CETP mice [2]; 8 weeks, liver lipidomics",−21%
same,increase of hepatic desmosterol levels,"male E3L.CETP mice [2]; 8 weeks, liver, vs vehicle",10 fold
same,"circulating CE (relative, plasma lipidome)","male E3L.CETP mice [2]; 8 weeks, plasma",relatively decreased
same,"lactosylceramides (LCER), phosphatidylcholine (PC) and phosphatidylethanolamine (PE) (relative, plasma lipidome)","male E3L.CETP mice [2]; 8 weeks, plasma",relatively increasing
same,"hepatic steatosis score (HE staining), change","male E3L.CETP mice [2]; 8 weeks, vs control treatment",−58%
same,"liver lipid area, change","male E3L.CETP mice [2]; 8 weeks, vs control treatment",−35%
same,body composition (lean body mass and fat body mass),male E3L.CETP mice [2]; [7],comparable to that of the control group
same,body weight,male E3L.CETP mice [2]; [7],comparable to that of the control group
same,plasma desmosterol levels,"male E3L.CETP mice [2]; plasma, from undetectable levels (<0.5 μg·mL^−1)",3.1 ± 0.4 µg/mL
same,circulating neutrophils,male E3L.CETP mice [3],without affecting
same,"hepatic neutrophils, change",male E3L.CETP mice [3],−50%
same,"monocytes in liver, change",male E3L.CETP mice [3],−79%
same,MHCII+/CD11c+ activated KCs,male E3L.CETP mice [3]; flow cytometry,did not significantly reduce
same,"MHCII−/CD11c− resting KCs, change",male E3L.CETP mice [3]; flow cytometry,+21%
same,"total Kupffer cells (KCs), change",male E3L.CETP mice [3]; flow cytometry,+44%
same,"total hepatic leukocytes, change","male E3L.CETP mice [3]; flow cytometry, p=0.09",−37%
same,"monocytes in blood, change",male E3L.CETP mice [3]; p=0.06,−43%
CC(=O)O[C@H]1CC[C@@]2(C)C(CC=C3C2CC[C@@]2(C)C3CCC2[C@H](C)COC(=O)CN(C)C)C1 (some centres unmarked) [Example 25],IC50,"HL-60 cells; HL-60, 24 h",6 nM
C[C@H](CO)C1CCC2C3CC=C4C[C@@H](O)CC[C@]4(C)C3CC[C@@]21C (some centres unmarked) [Example 29],IC50,"HL-60 cells; HL-60, 24 h",3 nM
"C[C@@H](CO)[C@H]1CC[C@H]2C3=CCC4C[C@@H](O)CC[C@]4(C)[C@H]3CC[C@]12C (stereo partly drawn) [Example 30, (3S,20R)-20-(Hydroxymethyl)-pregn-7-en-3-ol]",IC50,"HL-60 cells; HL-60, 24 h",300 nM
"C[C@H](CO)[C@H]1CC[C@H]2C3=CCC4C[C@H](O)CC[C@]4(C)[C@H]3CC[C@]12C (stereo partly drawn) [Example 31, (3R,20S)-20-(Hydroxymethyl)-pregn-7-en-3-ol]",IC50,"HL-60 cells; HL-60, 24 h",280 nM
"C[C@H](CO)C1CCC2c3ccc4c(c3CC[C@@]21C)CC[C@H](O)C4 (stereo partly drawn) [Example 33, (3S,20S)-20-(Hydroxymethyl)-pregn-5,7,9-trien-3-ol]",IC50,HL-60 cells; [4],175 nM
"CC(=O)O[C@H]1CC[C@@]2(C)C(CC=C3[C@@H]4CC[C@H]([C@H](C)CCOC=O)[C@@]4(C)CC[C@@H]32)C1 (stereo partly drawn) [Example 34, (3S,20R)-20-(2-Formyloxyethyl)-pregn-7-en-3-yl Acetate]",IC50,HL-60 cells; [4],1000 nM
"C=C(F)C(=O)OC[C@@H](C)C1CCC2c3ccc4c(c3CC[C@@]21C)CC[C@H](OC(C)=O)C4 (stereo partly drawn) [Example 35, (3S,20S)-20-[(2-Fluoroacryloyloxy)methyl]-pregn-5,7,9-trien-3-yl Acetate]",IC50,HL-60 cells; [4],130 nM
"C=C(F)C(=O)N(C)C[C@@H](C)[C@H]1CC[C@H]2C3=CCC4C[C@@H](OC(C)=O)CC[C@]4(C)[C@H]3CC[C@]12C (stereo partly drawn) [Example 37, (3S,20S)-20-[(2-Fluoro-N-methylacrylamido)methyl]-pregn-7-en-3-yl Acetate]",IC50,HL-60 cells; [4],110 nM
